Data reported in ChEMBL document CHEMBL1147522, “1,2,3,4-tetrahydrocarbazoles as 5-HT6 serotonin receptor ligands” (Bioorg Med Chem Lett, 2004).

Target: 5-hydroxytryptamine receptor 6 (Homo sapiens, UniProt P50406)
Test: Ability to displace [3H]LSD from human 5-hydroxytryptamine 6 receptor transiently expressed in COS-7 cells
Format: cell-based

5-hydroxytryptamine receptor 6, sequence (P50406 whole entry): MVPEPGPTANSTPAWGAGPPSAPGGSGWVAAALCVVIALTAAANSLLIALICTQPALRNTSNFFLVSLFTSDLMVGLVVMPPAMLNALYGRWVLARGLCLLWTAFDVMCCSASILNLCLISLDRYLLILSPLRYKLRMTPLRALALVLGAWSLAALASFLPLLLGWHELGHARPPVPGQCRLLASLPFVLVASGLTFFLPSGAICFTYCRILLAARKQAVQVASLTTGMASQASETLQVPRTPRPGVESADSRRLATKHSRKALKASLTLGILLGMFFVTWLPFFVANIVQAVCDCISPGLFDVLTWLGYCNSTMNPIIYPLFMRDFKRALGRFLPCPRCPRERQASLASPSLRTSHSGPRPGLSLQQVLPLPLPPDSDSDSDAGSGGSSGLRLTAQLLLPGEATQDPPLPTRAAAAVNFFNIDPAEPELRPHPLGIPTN

| SMILES | Ki [µM] |
| --- | --- |
| CN(C)CC1CCCc2c1c1ccccc1n2Cc1ccccc1 (stereo unspecified) | 0.064 |
| COc1ccc2c(c1)c1c(n2S(=O)(=O)c2ccc(N)cc2)CCCC1CN(C)C (stereo unspecified) | 0.002 |
| COc1ccc2c(c1)c1c(n2S(=O)(=O)Cc2ccccc2)CCCC1CN(C)C (stereo unspecified) | 0.2 |
| COc1ccc2c(c1)c1c(n2S(=O)(=O)c2ccc(I)cc2)CCCC1CN(C)C (stereo unspecified) | 0.0024 |
| COc1ccc2c(c1)c1c(n2S(=O)(=O)c2ccc(Cl)cc2)CCCC1CN(C)C (stereo unspecified) | 0.005 |
| Nc1ccc(S(=O)(=O)n2c3ccccc3c3ccccc32)cc1 | 0.049 |
| COc1ccc2c(c1)c1c(n2S(=O)(=O)c2ccc(C)cc2)CCCC1CN(C)C (stereo unspecified) | 0.0094 |

Continued by falling Ki, values first:

| Ki [µM] | SMILES |
| --- | --- |
| 6 | COc1ccc2c(c1)c1c(n2Cc2ccc(N)cc2)CCCC1 |
| 6 | COc1ccc2c(c1)c1c(n2C(=O)c2ccc(N)cc2)CCCC1 |
| 0.047 | COc1ccc(S(=O)(=O)n2c3c(c4cc(OC)ccc42)C(CN(C)C)CCC3)cc1 (stereo unspecified) |
| 0.029 | COc1ccc2c(c1)c1c(n2S(=O)(=O)c2ccc(N)cc2)CCCC1 |
| 0.014 | COc1ccc2c(c1)c1c(n2S(=O)(=O)c2cccc3ccccc23)CCCC1CN(C)C (stereo unspecified) |
| 0.0076 | COc1ccc2c(c1)c1c(n2S(=O)(=O)c2cccc3cccnc23)CCCC1CN(C)C (stereo unspecified) |
| 0.0051 | COc1ccc2c(c1)c1c(n2S(=O)(=O)c2ccc3ccccc3c2)CCCC1CN(C)C (stereo unspecified) |
| 0.0023 | COc1ccc2c(c1)c1c(n2S(=O)(=O)c2ccccc2)CCCC1CN(C)C (stereo unspecified) |
| 0.0003 | COc1ccc(OC)c(S(=O)(=O)n2c3c(c4cc(OC)ccc42)C(CN(C)C)CCC3)c1 (stereo unspecified) |
